Assay results reported in PMC10343299, “S-Ethyl-Isothiocitrullin-Based Dipeptides and 1,2,4-Oxadiazole Pseudo-Dipeptides: Solid Phase Synthesis and Evaluation as NO Synthase Inhibitors” (Molecules, 2023).
Read-outs that look alike come from different tables or passages of the source. Values belong to the compound of their own block, whether it stands above or below them.

Key:
rat nNOS = biological target: T1, rat nNOS (Rattus norvegicus, UniProt P29476); test: NOS inhibition, oxyhemoglobin (hemoglobin capture) test, recombinant nNOS; type: biochemical; details: recombinant enzyme, 10 µM arginine, triplicate, NI = <50% inhibition at 100 μM
T1 construct: Full-length recombinant rat nNOS, mouse iNOS, bovine eNOS; made in house; host or cells: Escherichia coli
T1 sequence (P29476 whole entry): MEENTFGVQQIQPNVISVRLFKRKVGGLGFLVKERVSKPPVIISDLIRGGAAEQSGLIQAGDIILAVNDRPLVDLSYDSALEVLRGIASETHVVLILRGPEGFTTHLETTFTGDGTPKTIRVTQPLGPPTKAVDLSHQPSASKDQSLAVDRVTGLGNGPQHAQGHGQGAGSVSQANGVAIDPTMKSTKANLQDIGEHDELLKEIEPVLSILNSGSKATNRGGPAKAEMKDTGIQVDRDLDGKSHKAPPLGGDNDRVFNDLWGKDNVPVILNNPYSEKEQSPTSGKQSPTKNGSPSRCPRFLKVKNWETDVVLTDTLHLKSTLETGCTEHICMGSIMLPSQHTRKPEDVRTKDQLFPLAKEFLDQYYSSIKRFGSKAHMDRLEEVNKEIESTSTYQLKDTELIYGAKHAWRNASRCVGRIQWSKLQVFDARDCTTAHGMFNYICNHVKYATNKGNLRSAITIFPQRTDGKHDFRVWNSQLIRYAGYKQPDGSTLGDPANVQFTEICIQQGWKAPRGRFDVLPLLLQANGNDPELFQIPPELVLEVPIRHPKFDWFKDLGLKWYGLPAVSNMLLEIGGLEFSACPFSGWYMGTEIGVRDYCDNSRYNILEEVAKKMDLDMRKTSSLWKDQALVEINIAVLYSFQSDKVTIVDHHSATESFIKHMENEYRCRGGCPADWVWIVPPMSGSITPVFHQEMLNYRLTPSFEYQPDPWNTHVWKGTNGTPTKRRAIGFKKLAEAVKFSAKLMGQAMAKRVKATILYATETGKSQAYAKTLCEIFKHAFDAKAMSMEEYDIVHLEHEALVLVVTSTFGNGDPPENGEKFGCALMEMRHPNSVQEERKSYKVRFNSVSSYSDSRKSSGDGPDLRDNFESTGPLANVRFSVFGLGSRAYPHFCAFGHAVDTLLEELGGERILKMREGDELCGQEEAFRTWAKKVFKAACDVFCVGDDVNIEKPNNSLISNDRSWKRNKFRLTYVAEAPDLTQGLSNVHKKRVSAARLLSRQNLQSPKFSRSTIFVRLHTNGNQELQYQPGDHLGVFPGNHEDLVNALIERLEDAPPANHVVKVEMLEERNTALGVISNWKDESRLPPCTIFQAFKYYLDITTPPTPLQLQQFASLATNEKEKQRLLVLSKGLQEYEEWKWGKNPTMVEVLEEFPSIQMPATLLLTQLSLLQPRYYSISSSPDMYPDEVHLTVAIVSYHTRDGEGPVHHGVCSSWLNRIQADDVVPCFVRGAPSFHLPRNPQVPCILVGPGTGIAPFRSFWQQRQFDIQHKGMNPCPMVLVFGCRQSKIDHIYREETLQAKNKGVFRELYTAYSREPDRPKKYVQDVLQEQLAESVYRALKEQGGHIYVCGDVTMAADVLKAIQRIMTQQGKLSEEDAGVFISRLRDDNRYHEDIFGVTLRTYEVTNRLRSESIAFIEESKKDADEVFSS
Procedure: (§1) The inhibitory effects of all compounds against the three recombinant NOSs (rat nNOS, mouse iNOS, and bovine eNOS) were evaluated in 96-well plates using the oxyhemoglobin test. A first screening at 100 and 10 μM was performed, and the IC50 values were measured for compounds showing more than 50% inhibition at 100 μM (Table 1 and Table 2).
(§2) Full-length recombinant rat nNOS, mouse iNOS, bovine eNOS, and the heme domains of rat brain nNOS and mouse iNOS were expressed in Escherichia coli and purified as described previously.
(§3) NOS catalytic activity was measured using the hemoglobin capture assay. The test was performed at 30 °C in 96-well microplates using a final volume of 200 µL. The assay mixture contained 100 µM NADPH, 10 µM BH4, 6 µM HbO2, 100 µM DTT, 5 µM FAD, 5 µM FMN, 10 µM (nNOS and eNOS), or 20 µM (iNOS) arginine, all in a 100 mM Hepes buffer, pH 7.5, and, for constitutive n- and e-NOS, 10 µg/mL calmodulin, and 1 mM CaCl2. The studied compounds were introduced as 2 μL of ×100 concentrated solutions in DMSO, and the control experiments were performed with DMSO or the buffer only. The kinetics of NO production were measured at 401 nm using an Infinite F500 microplate reader (Tecan, Singapore).

mouse iNOS [1] = biological target: T2, mouse iNOS (Mus musculus, UniProt P29477); test: NOS inhibition, oxyhemoglobin (hemoglobin capture) test, recombinant iNOS; type: biochemical; details: recombinant enzyme, 20 µM arginine, triplicate, NI = <50% inhibition at 100 μM
T2 construct: Full-length recombinant rat nNOS, mouse iNOS, bovine eNOS; made in house; host or cells: Escherichia coli
T2 sequence (P29477 1-1144): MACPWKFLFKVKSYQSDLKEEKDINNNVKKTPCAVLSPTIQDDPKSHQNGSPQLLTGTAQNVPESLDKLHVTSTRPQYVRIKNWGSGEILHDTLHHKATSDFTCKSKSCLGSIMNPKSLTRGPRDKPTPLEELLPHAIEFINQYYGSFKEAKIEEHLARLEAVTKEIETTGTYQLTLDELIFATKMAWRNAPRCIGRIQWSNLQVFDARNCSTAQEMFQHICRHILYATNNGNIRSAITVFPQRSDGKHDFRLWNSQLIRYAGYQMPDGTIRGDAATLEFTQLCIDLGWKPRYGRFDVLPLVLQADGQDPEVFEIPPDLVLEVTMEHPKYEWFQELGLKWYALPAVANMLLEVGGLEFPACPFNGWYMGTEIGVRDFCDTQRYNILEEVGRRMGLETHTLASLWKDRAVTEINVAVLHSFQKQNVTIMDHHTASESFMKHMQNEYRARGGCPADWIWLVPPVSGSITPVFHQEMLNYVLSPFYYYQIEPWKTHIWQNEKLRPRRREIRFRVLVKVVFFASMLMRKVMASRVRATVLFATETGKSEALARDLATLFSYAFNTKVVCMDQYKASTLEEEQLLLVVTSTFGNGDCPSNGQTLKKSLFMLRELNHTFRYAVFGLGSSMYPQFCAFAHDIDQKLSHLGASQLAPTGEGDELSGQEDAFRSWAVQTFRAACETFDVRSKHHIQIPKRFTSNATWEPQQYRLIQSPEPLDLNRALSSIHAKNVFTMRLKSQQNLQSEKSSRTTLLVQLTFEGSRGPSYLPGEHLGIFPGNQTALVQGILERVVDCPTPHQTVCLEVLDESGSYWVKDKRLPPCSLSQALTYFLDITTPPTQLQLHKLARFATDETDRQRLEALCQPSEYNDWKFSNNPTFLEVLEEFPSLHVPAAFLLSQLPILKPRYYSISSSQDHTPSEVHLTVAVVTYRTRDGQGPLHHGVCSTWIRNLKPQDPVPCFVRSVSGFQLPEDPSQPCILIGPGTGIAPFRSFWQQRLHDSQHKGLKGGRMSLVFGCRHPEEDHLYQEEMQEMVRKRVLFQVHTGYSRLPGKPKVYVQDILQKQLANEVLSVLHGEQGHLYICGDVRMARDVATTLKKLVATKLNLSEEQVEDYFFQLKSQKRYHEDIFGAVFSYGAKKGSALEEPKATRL
Procedure: as §1, §2, §3

bovine eNOS = biological target: T3, bovine eNOS (Bos taurus, UniProt P29473); test: NOS inhibition, oxyhemoglobin (hemoglobin capture) test, recombinant eNOS; type: biochemical; details: recombinant enzyme, 10 µM arginine, triplicate, NI = <50% inhibition at 100 μM, read-out: IC50 (μM) eNOS (Bovine)
T3 construct: Full-length recombinant rat nNOS, mouse iNOS, bovine eNOS; made in house; host or cells: Escherichia coli
T3 sequence (P29473 whole entry): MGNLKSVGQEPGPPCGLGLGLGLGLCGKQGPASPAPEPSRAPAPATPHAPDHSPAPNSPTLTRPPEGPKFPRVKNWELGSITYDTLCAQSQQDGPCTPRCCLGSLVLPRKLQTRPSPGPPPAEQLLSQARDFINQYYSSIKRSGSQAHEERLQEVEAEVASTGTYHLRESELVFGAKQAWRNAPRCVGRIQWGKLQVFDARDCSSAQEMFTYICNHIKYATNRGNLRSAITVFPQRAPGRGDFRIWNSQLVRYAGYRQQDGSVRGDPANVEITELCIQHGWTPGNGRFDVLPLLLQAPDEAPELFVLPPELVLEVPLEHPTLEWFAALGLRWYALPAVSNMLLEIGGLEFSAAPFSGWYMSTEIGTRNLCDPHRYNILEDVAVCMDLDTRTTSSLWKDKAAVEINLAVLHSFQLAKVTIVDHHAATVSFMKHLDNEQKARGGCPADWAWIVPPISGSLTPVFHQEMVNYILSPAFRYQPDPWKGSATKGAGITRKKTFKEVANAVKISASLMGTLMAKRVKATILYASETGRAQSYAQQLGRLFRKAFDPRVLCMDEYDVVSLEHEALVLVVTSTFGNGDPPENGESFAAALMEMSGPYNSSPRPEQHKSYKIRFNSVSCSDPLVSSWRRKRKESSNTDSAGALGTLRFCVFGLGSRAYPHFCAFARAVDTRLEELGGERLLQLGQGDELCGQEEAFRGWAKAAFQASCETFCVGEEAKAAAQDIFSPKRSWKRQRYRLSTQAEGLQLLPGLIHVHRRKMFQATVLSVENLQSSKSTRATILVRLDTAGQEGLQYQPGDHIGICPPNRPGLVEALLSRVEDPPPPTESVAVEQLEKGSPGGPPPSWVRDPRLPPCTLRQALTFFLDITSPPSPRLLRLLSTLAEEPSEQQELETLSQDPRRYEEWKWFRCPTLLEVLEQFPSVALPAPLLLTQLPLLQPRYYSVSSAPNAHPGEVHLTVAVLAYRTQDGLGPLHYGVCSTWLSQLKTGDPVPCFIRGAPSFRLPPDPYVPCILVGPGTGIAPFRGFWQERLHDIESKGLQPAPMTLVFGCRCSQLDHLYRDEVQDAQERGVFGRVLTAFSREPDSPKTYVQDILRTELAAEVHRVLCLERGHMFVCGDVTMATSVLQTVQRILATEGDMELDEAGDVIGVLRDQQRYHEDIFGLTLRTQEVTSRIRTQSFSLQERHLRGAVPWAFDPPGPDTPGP

RAW 264.7 cells [2] = test: Cell viability, MTT assay; type: cell-based, murine
Procedure: Cell viability was evaluated in the murine macrophage RAW 264.7 cells using an MTT assay for compounds 18, 21, 26, and 30. This experiment was performed without or with LPS (1 µg/mL), which induces iNOS expression (Figure S1). […] Compound 30 only killed 20% of the cells at 500 μM (Figure S1A). In the presence of LPS (1 µg/mL), cell viability was reduced by 30% due to the inhibition by NO of key enzymes involved in cell metabolism (Figure S1B).
The macrophage cell line RAW 264.7 (a gift from Dr. A. Blangy, Montpellier, France) was cultured in Dulbecco’s Modified Eagle’s Medium (DMEM) supplemented with 10% FCS, 100 units/mL penicillin, 100 µg/mL streptomycin, and 2 mM L-glutamine.
(§4) Cellular NO production was measured using the Griess reagent (Sigma-Aldrich), which evaluates the nitrite content in culture media. Cellular toxicity was estimated by the MTT assay (Sigma-Aldrich) in RAW 264.7 cells after the induction (or not) of iNOS by LPS, according to the manufacturer’s recommendations.

iNOS in RAW 264.7 cells = biological target: T4, iNOS in RAW 264.7 cells (Mus musculus, UniProt P29477); test: Inhibition of NO production (nitrite, Griess) in LPS-stimulated cells; type: cell-based, murine; details: RAW264.7; RAW 264.7, LPS 1 µg/mL, 100 μM compound; read-out: Inhibition of intracellular NO production
T4 construct: In RAW 264.7 cells, iNOS was induced by LPS (1 µg/mL, Sigma-Aldrich) for 24 h; endogenous in cells; host or cells: RAW 264.7 murine macrophages, LPS-induced
Procedure: We evaluated the ability of selected compounds (dipeptides 7, 8, and 21 and 1,2,4-oxadiazoles 30 and 40) to inhibit iNOS in RAW 264.7 cells (Figure 2), where iNOS was induced by LPS (1 µg/mL). iNOS activity was measured following LPS induction by quantifying nitrite accumulation in the supernatant. […] A similar result was previously reported.
In RAW 264.7 cells, iNOS was induced by LPS (1 µg/mL, Sigma-Aldrich) for 24 h. All studied compounds were incubated with cells during the last 24 h.
as §4

mouse iNOS [3] = test: NOS inhibition, oxyhemoglobin (hemoglobin capture) test, recombinant iNOS; type: biochemical; details: from IC50 values
Procedure: as §1, §2, §3

nNOS = test system: nNOS; design: method as in PMID 14718923; details: cited from earlier work
eNOS = biological target: eNOS; design: method as in PMID 14718923; details: read-out: Experimental Ki eNOS; cited from earlier work
RAW 264.7 cells [4] = test system: RAW 264.7 cells; design: method as in PMID 32027778; details: RAW 264.7, LPS; cited from earlier work
[5] = biological target: T5, oxygenase domain of nNOS (nNOSoxy) (Rattus norvegicus, UniProt P29476); test: UV-visible difference spectroscopy titration of nNOSoxy; type: binding; details: UV/Vis difference spectroscopy, ± SD, three experiments; read-out: Apparent equilibrium constant Ks nNOSoxy
T5 construct: the oxygenase domain of nNOS (nNOSoxy) and iNOS (iNOSoxy); made in house; host or cells: Escherichia coli
T5 sequence (P29476 1-720 limits assumed): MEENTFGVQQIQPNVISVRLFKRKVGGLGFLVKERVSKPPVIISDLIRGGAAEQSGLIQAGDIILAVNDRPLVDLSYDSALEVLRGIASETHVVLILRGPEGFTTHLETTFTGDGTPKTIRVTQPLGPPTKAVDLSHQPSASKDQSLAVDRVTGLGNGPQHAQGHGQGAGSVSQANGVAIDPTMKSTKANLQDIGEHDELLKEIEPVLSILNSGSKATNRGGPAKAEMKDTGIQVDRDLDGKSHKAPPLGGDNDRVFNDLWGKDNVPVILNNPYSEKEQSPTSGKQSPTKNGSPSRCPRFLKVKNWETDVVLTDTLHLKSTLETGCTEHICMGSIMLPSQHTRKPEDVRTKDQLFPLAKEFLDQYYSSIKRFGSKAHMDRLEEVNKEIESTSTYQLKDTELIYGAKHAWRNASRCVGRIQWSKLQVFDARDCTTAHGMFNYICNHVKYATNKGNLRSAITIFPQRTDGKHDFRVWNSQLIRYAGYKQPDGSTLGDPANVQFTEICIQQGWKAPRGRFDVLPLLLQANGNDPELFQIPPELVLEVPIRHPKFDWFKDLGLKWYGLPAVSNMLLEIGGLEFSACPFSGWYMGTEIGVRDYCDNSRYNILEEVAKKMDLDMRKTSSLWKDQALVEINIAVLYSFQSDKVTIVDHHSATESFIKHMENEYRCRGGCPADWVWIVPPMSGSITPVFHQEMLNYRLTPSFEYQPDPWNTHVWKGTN
From the text: (§5) We performed UV–visible difference spectroscopy to analyze the interaction mode of some inhibitors with the heme-active site of NOS [54]. We have studied the effects of dipeptide-like compounds 7, 17, 19, 23, and 27 and 1,2,4-oxadiazole 35 on the UV–visible spectra of the oxygenase domain of nNOS (nNOSoxy) and iNOS (iNOSoxy). As expected, when added stepwise to n- and iNOSoxy, all selected compounds elicited different spectra with a trough at ~425 nm and a peak at ~395 nm, similar to the substrate L-arginine. This profile is characteristic of type I interactions, meaning that they are bound in close proximity to the heme prosthetic group and shifted the spin state equilibrium to the pentacoordinated heme–Fe^III state. Double reverse plotting of the differences in absorbance between the peak at ~395 nm and valley at ~425 nm (ΔA395–425 nm) as a function of the concentration of the added compounds allowed calculating apparent binding constants (Ks) (Table 3). The reference inhibitor SEITU [55] tightly bound both NOS isoforms with high affinity but no selectivity. With the exception of the dipeptide-like 27 and the heterocyclic analog 35, which similarly interacted with both proteins, other compounds preferentially bound nNOSoxy over iNOSoxy with apparent affinities close to SEITU for this isoform.
as §2
(§6) This study was performed as previously described.

[6] = biological target: T6, oxygenase domain of iNOS (iNOSoxy) (Mus musculus, UniProt P29477); test: UV-visible difference spectroscopy titration of iNOSoxy; type: binding; details: UV/Vis difference spectroscopy, ± SD, three experiments; read-out: Apparent equilibrium constant Ks iNOSoxy
T6 construct: the oxygenase domain of nNOS (nNOSoxy) and iNOS (iNOSoxy); made in house; host or cells: Escherichia coli
T6 sequence (P29477 1-498 limits assumed): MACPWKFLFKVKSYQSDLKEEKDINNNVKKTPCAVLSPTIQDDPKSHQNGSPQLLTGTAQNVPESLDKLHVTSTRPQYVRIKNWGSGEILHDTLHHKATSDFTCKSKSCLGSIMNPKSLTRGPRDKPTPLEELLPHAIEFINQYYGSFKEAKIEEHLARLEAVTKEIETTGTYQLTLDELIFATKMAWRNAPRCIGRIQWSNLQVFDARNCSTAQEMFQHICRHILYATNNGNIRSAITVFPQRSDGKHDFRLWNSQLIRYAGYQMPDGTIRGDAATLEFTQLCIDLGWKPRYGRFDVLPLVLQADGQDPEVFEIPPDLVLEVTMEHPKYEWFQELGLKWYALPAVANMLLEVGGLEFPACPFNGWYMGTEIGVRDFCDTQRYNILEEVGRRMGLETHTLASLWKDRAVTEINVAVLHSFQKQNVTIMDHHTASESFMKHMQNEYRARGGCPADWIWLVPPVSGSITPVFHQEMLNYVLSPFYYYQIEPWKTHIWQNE
From the text: as §5, §2, §6

IC50 (rat nNOS; dipeptide-like series): 1 µM
IC50 (mouse iNOS [1]; dipeptide-like series): 45.5 µM
inhibition at 100 µM (bovine eNOS; dipeptide-like series): < 50%
inhibition at 100 µM (iNOS in RAW 264.7 cells): 80%
SMILES: CCSC(=N)NCCC[C@H](N)C(=O)N[C@H]1CCCN(Cc2cccc(Br)c2)C1 [Compound 21]
Reversal of LPS-induced reduction of cell viability (RAW 264.7 cells [2]; RAW 264.7, LPS 1 µg/mL): none partially reversed the LPS effect
Effect on cell viability (MTT) (RAW 264.7 cells [2]; RAW 264.7, absence of LPS, up to 100 μM): did not modify cell viability

IC50 (rat nNOS; 1,2,4-oxadiazole series): 61 µM
IC50 (mouse iNOS [1]; 1,2,4-oxadiazole series): 2 µM
inhibition at 100 µM (bovine eNOS; 1,2,4-oxadiazole series): < 50%
SMILES: CCSC(=N)NCCC[C@H](N)c1nc(CCN(Cc2ccccc2[N+](=O)[O-])Cc2ccccc2[N+](=O)[O-])no1 [Compound 40]
Selectivity for iNOS toward eNOS (mouse iNOS [3]): > 50 fold
Selectivity for iNOS toward nNOS (mouse iNOS [3]): 30 fold

SMILES: N=C(NCCC[C@H](N)C(=O)N1C[C@H](N)C[C@H]1C(N)=O)N[N+](=O)[O-] [DP9, L-Nω-nitroarginine-(4R)-amino-L-prolinamide]
Selectivity in favor of nNOS over eNOS (nNOS): 1000 fold
Ki (nNOS; read-out: Experimental Ki nNOS): 0.1 µM
Ki (eNOS): 110 µM

SMILES: CC(=N)NCCCC[C@H](N)C(=O)O [L-NIL]
Reversal of LPS-induced reduction of cell viability (RAW 264.7 cells [4]): partially reversed the LPS effect

SMILES: CCSC(=N)N [SEITU, reference compound]
Kd [5]: 6.4 ± 1.5 µM
Kd [6]: 1.7 ± 0.1 µM
Reversal of LPS-induced reduction of cell viability (RAW 264.7 cells [4]): partially reversed the LPS effect
